Experiments:
[1] = system: Uromyces appendiculatus; experiment: In vivo preventive test on Uromyces appendiculatus (bean rust); details: 240 h, sprayed 72 hours before inoculation, evaluated 10 days after inoculation, read-out: efficacy; for pest or weed control at 125 ppm: 125 ppm of active ingredient; for pest or weed control at 500 ppm: 500 ppm of active ingredient; for pest or weed control at 31 ppm: 31 ppm of active ingredient
Outline: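 Young bean plants sprayed with compound in acetone/DMSO/Tween diluted in water, then inoculated 72 h later with spore suspension. Incubated 24 h at 20° C., 100% RH, then 9 days at 20° C., 70-80% RH. Efficacy scored 10 days post-inoculation, 0% = untreated-control level, 100% = no disease.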

[2] = system: Pseudomonas syringae pv. tomato; experiment: Pseudomonas syringae pv. tomato in vitro cell test; type: cell-based; details: 20 ppm of active ingredient, 24 h of incubation, read-out: efficacy (inhibition of bacteria growth; no direct activity)
Outline: (§1)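 Bacteria from liquid pre-culture diluted to set OD in LB broth and exposed to compounds dissolved in DMSO (final ≤1%). After 24 h, growth read by absorbance; inhibition derived relative to compound-free control wells.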

[3] = system: Pseudomonas syringae pv. tomato; experiment: In vivo preventive test on Pseudomonas syringae pv. tomato (bacterial speck on tomato); details: sprayed 72 hours before inoculation, evaluated 5 or 6 days after inoculation, read-out: efficacy; for pest or weed control at 500 ppm: 500 ppm of active ingredient; for pest or weed control at 125 ppm: 125 ppm of active ingredient
Experimental: The tested active ingredients were prepared by homogenization in a mixture of acetone/Dimethyl sulfoxide/Tween®, and then diluted with water to obtain the desired active material concentration.
The young plants of tomato were treated by spraying the active ingredient prepared as described above. Control plants were treated only with an aqueous solution of acetone/Dimethyl sulfoxide/Tween®.
After 72 hours, the plants were contaminated by spraying the leaves with an aqueous bacteria suspension of Pseudomonas syringae pv. tomato. The contaminated tomato plants were incubated for 4 days in saturated atmosphere at 22° C. day/20° C. night−70% HR and then for 1 or 2 days at 22° C. day/20° C. night at 70-80% relative humidity.
The test was evaluated 5 or 6 days after the inoculation. 0% means an efficacy which corresponds to that of the control plants while an efficacy of 100% means that no disease was observed.

[4] = system: salicylate responsive promoter sequence of the PR1 (pathogenesis-related protein I) gene (AT2G14610); experiment: Induction of defense gene expression in Arabidopsis thaliana (PR1 promoter-GFP reporter plants); type: in vivo; details: 72 h, 3rd day after spraying, mock treated leaves set as 1.00, read-out: relative fluorescence value
Outline: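 Transgenic A. thaliana carrying GFP under the salicylate-responsive PR1 promoter, grown five days, then sprayed with compounds. Whole-plant fluorescence imaged and quantified on day 3 post-spray, expressed relative to mock-treated leaf background set at 1.00.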

[5] = system: Colletotrichum lindemuthianum; experiment: In vivo preventive test on Colletotrichum lindemuthianum (Anthracnose on bean); details: Colletotrichum lindemuthianum, 144 h, sprayed 72 hours before inoculation, evaluated 6 days after inoculation, read-out: efficacy; for pest or weed control at 125 ppm: 125 ppm of active ingredient; for pest or weed control at 500 ppm: 500 ppm of active ingredient
Outline: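 Young bean plants were sprayed with compound in acetone/DMSO/Tween diluted in water, then inoculated 72 h later with C. lindemuthianum spores. Incubation was 24 h at 20 °C/100% RH, then 5 days at 20 °C/90% RH. Efficacy scored 6 days post-inoculation: 0% equals solvent-treated control, 100% means no disease.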

[6] = system: Xanthomonas campestris pv. campestris; experiment: Xanthomonas campestris pv. campestris in vitro cell test; type: cell-based; details: 24 h of incubation, read-out: efficacy (inhibition of bacteria growth; no direct activity); for inhibition at 5 ppm: 5 ppm of active ingredient; for inhibition at 20 ppm: 20 ppm of active ingredient
Outline: as §1

[7] = LogP by HPLC on reversed phase columns (EEC directive 79/831 Annex V.A8); type: physicochemical; details: reversed phase HPLC columns; method [a]
Outline: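 Reversed-phase HPLC, calibrated with straight-chain alkan-2-ones (C3–C16) of known LogP; values by linear interpolation of retention times between successive alkanones. Multiple values from one method are joined by "+"; lambda-max taken from 200–400 nm UV spectra at chromatographic peaks.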

[8] = system: Alternaria alternata; experiment: Alternaria alternata in vitro cell test; type: cell-based; details: 120 h, 5 days incubation, read-out: efficacy (inhibition of fungal growth; no direct activity); for inhibition at 5 ppm: 5 ppm of active ingredient; for inhibition at 20 ppm: 20 ppm of active ingredient
Outline: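 A. alternata spores in glucose/peptone/yeast-extract liquid medium were exposed to DMSO-solubilized compound (final DMSO ≤1%). After 5 days incubation, mycelium growth read spectrometrically; inhibition derived from absorbance relative to fungicide-free control wells.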

[9] = system: Peronospora parasitica; experiment: In vivo preventive test on Peronospora parasitica (Crucifer downy mildew) on cabbage; details: Hyaloperonospora parasitica, 120 h, sprayed 72 hours before inoculation, evaluated 5 days after inoculation, read-out: efficacy; for pest or weed control at 31 ppm: 31 ppm of active ingredient; for pest or weed control at 125 ppm: 125 ppm of active ingredient; for pest or weed control at 500 ppm: 500 ppm of active ingredient
Outline: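 Young cabbage plants were sprayed with compound in aqueous acetone/DMSO/Tween, then inoculated 72 h later with P. parasitica spores and held 5 days at 20 °C, 100% RH. Efficacy scored 5 days post-inoculation: 0% equals solvent-treated controls, 100% means no disease.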

[10] = system: Xanthomonas campestris pv. campestris; experiment: In vivo preventive test on Xanthomonas campestris pv. campestris (black rot on cabbage); details: Xanthomonas campestris, 31 ppm of active ingredient, sprayed 72 hours before inoculation, evaluated 8 or 10 days after inoculation, read-out: efficacy
Outline: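 Young cabbage plants sprayed preventively with compound formulated in acetone/DMSO/Tween and diluted in water, then inoculated 72 h later with a bacterial spray. Kept at 27° C, 95% relative humidity; disease scored after 8 or 10 days as % efficacy versus solvent-treated controls (0% = control, 100% = no disease).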

[11] = system: Colletotrichum lindemuthianum; experiment: Colletotrichum lindemuthianum in vitro cell test; type: cell-based; details: 144 h, 6 days incubation, read-out: efficacy (inhibition of fungal growth; no direct activity); for inhibition at 5 ppm: 5 ppm of active ingredient
Outline: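 C. lindemuthianum spore suspension grown in liquid glucose/peptone/yeast-extract medium with compound (final DMSO ≤1%). After 6 days, mycelial growth measured by absorbance; inhibition calculated versus fungicide-free control wells.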

Row | SMILES | chromatographic logP [7] | pest or weed control at 125 ppm [1] [%] | pest or weed control at 500 ppm [1] [%] | inhibition at 20 ppm [2] [%] | pest or weed control at 500 ppm [3] [%] | fold induction at 75 ppm [4] | fold induction at 300 ppm [4] | pest or weed control at 125 ppm [5] [%] | pest or weed control at 500 ppm [5] [%] | inhibition at 5 ppm [6] [%] | inhibition at 20 ppm [6] [%] | inhibition at 5 ppm [8] [%] | inhibition at 20 ppm [8] [%] | pest or weed control at 31 ppm [9] [%] | pest or weed control at 125 ppm [9] [%] | pest or weed control at 500 ppm [9] [%] | inhibition at 5 ppm [11] [%] | pest or weed control at 31 ppm [1] [%] | pest or weed control at 125 ppm [3] [%] | further results
1 | COC(=O)C(NC(=O)c1sc(Cl)c(Cl)c1C)c1cccs1 (stereo not drawn) [I.165] | 3.81 | 90 to 100 | – | ≤ 30 | – | – | > 2 | 80 to 89 | – | ≤ 30 | ≤ 30 | ≤ 30 | ≤ 30 | 90 to 100 | 90 to 100 | – | ≤ 30 | 90 to 100 | 80 to 89 | pest or weed control at 31 ppm ([5]; 31 ppm of active ingredient): 80 to 89%
2 | COC(=O)C(C)(C)NC(=O)c1sc(Cl)c(Cl)c1C [I.176] | 3.16 | 90 to 100 | – | ≤ 30 | – | > 2 | > 2 | – | – | ≤ 30 | ≤ 30 | ≤ 30 | ≤ 30 | 70 to 79 | 90 to 100 | – | ≤ 30 | 90 to 100 | 70 to 79 | –

Further lines, with some results ahead:

Row | chromatographic logP [7] | SMILES | pest or weed control at 125 ppm [1] [%] | pest or weed control at 500 ppm [1] [%] | inhibition at 20 ppm [2] [%] | pest or weed control at 500 ppm [3] [%] | fold induction at 75 ppm [4] | fold induction at 300 ppm [4] | pest or weed control at 125 ppm [5] [%] | pest or weed control at 500 ppm [5] [%] | inhibition at 5 ppm [6] [%] | inhibition at 20 ppm [6] [%] | inhibition at 5 ppm [8] [%] | inhibition at 20 ppm [8] [%] | pest or weed control at 31 ppm [9] [%] | pest or weed control at 125 ppm [9] [%] | pest or weed control at 500 ppm [9] [%] | inhibition at 5 ppm [11] [%] | pest or weed control at 31 ppm [1] [%] | pest or weed control at 125 ppm [3] [%] | further results
3 | 3.33 | COC(=O)C(CC(F)F)NC(=O)c1sc(Br)c(Br)c1C (stereo not drawn) [I.108] | 90 to 100 | 90 to 100 | ≤ 30 | 70 to 79 | > 2 | > 2 | 80 to 89 | 90 to 100 | ≤ 30 | ≤ 30 | ≤ 30 | ≤ 30 | 70 to 79 | 70 to 79 | 90 to 100 | – | – | – | –
4 | 1.68 | COC(=O)[C@H](CCCNC(=N)N)NC(=O)c1sc(Cl)c(Cl)c1C [I.079] | – | 80 to 89 | ≤ 30 | 70 to 79 | – | > 2 | – | – | ≤ 30 | ≤ 30 | ≤ 30 | – | 80 to 89 | 90 to 100 | 90 to 100 | ≤ 30 | – | – | pest or weed control at 31 ppm [10]: 70 to 79%; inhibition at 20 ppm ([11]; 20 ppm of active ingredient): ≤ 30%
5 | 3.76 | CCOC(=O)C(NC(=O)c1sc(Cl)c(Cl)c1C)C1CC1 (stereo not drawn) [I.083] | 90 to 100 | 90 to 100 | ≤ 30 | – | – | > 2 | – | 90 to 100 | ≤ 30 | ≤ 30 | ≤ 30 | ≤ 30 | 90 to 100 | 90 to 100 | 90 to 100 | ≤ 30 | 90 to 100 | 70 to 79 | –
